We go through three compounds from patent US10189862B2, “Phenothiazine-pyridine compounds and uses thereof” (The Chinese University of Hong Kong, priority 2016, dated 2019).

Read-outs that look alike come from different tables or passages of the source. Where only a bound is given, the exact number is not on record here.

The term IC50 denotes the concentration that gives 50% inhibition. As usually defined, the logP is the decadic logarithm of the partition coefficient of the neutral form, usually between octanol and water. Higher therefore signals higher lipophilicity.

In series [1] the test system is S. aureus. The following applies: 10 uM, 30 min drug-incubation, 60 J/cm^2; cited from earlier work.
Series [2] relates to E. coli. The following applies: 10 uM, 30 min incubation, 24 J/cm^2; cited from earlier work.
In another series the test system is bacteria. Conditions: concentration of 10 uM; cited from earlier work.
The test system of series [3] is MCF7 cell line. Put plainly: Dark toxicity, MTT assay. The format is cell-based. The following applies: Homo sapiens; MCF7; 24 h under dark, MTT; read-out: IC50 DK. As to the method: (§1) Cell lines and culture conditions: A549, HT29, MCF-7, MDA-MB-231 cell lines were maintained in RPMI1640 supplemented with fetal bovine serum (10%) and penicillin-streptomycin solution (1%), and WI38 cells were maintained in DMEM supplemented with fetal bovine serum (10%) and penicillin-streptomycin solution (1%). Approximately 1×10^4 (for A549, HT29, MCF-7, MDA-MB-231) or 1.5×10^4 (for WI38) cells per well were seeded in 96-well plate and incubated overnight light at 37° C. in a humidified atmosphere with 5% CO2.
(§2) Dark toxicity: Cells were incubated with different concentrations of photosensitive drug for 24 h in dark, and the cell viabilities were determined by MTT assay
In general terms: Tetrazolium assays rely on reduction of a dye to a coloured formazan, in cell work by metabolically active cells.

In series [4] the test system is HT29 cell line. Put plainly: Dark toxicity, MTT assay. The series is classed as cell-based. Conditions: Homo sapiens, HT-29; HT29; 24 h under dark, MTT; read-out: IC50 DK. As to the method: as §1, §2
The test system of series [5] is A549 cell line. Put plainly: Dark toxicity, MTT assay. The series is classed as cell-based. The following applies: Homo sapiens; A549; 24 h under dark, MTT; read-out: IC50 DK. As to the method: as §1, §2
Series [6] concerns S. aureus. In words: Photodynamic inactivation of bacteria, CFU count. The series is classed as cell-based, Staphylococcus aureus. As to the method:
(§3) Bacterial growth and culture: Gram-positive S. aureus or Gram-negative E. coli were grown on trypticase soy agar (TSA) for 24 h, then a colony was transferred into tryptica soy broth (TSB) and grown at 37° C. overnight at a 200 rpm speeds of shaking-up using a shaker incubator. The nutrient medium was centrifuged for 5 min at 8000 rpm and diluted by sterile 0.85% saline (pH 7.5) to concentrations of 10^8 CFU/ml, which was used for further incubation with photosensitizers in the following experiments.
(§4) Photodynamic inactivation of bacteria: Bacterial suspensions (2×10^8 CFU/ml) were co-incubated with different concentrations of the photosensitizer for 10 min at 37° C., and then centrifuged, washed once with normal saline and resuspended in PBS saline. Aliquots of this suspension were placed into 24-well flat bottom plate and illuminated with laser light. After illumination, 100 uL of cell suspension were spread on the TSA in 10-fold serial dilutions and colony forming unit (CFU) was counted after incubation for 24 h at 37° C.

The test system of series [7] is E. coli. In words: Photodynamic inactivation of bacteria, CFU count. The format is cell-based, Escherichia coli. As to the method: as §3, §4
The subject of series [8] is E. coli. In words: Dark toxicity of photosensitizers on bacteria, CFU count. The series is classed as cell-based, Escherichia coli. Conditions: absence of light, 6 h. As to the method: as §3
(§5) Dark toxicities of the photosensitizers on bacteria: Bacterial suspensions were incubated with photosensitizers at various concentrations at 37° C. in the dark for 6 h. After that, 100 uL of cell suspension were spread on the TSA in 10-fold serial dilutions. Colony forming unit (CFU) was counted after incubation for 24 h at 37° C.

In series [9] the test system is MCF7 cell line. In words: Photocytotoxicity (PDT), MTT assay. The series is classed as cell-based. The following applies: Homo sapiens, light or radiation study; MCF7; 1 h incubation, 630 nm LED light 30 s, 3.2 J/cm^2, 24 h, MTT; read-out: IC50 PDT. As to the method: as §1
(§6) Photocytotoxicity: Cells were incubated with different concentrations of photosensitive drug for 1 h in the dark, then the medium in the well was sucked by a syringe, and washed by PBS. Then a solution of new medium was added, and illuminated by light. After irradiation, the cells were incubated under dark at 37° C. for another 24 h, and the cell viabilities were determined by MTT assay.

For series [10], the system named is HT29 cell line. Put plainly: Photocytotoxicity (PDT), MTT assay. The following applies: Homo sapiens, HT-29, light or radiation study; HT29; 1 h incubation, 630 nm LED light 30 s, 3.2 J/cm^2, 24 h, MTT; read-out: IC50 PDT. The series is classed as cell-based. As to the method: as §1, §6
Series [11] has as its system A549 cell line. In words: Photocytotoxicity (PDT), MTT assay. The series is classed as cell-based. The following applies: Homo sapiens, light or radiation study; A549; 1 h incubation, 630 nm LED light 30 s, 3.2 J/cm^2, 24 h, MTT; read-out: IC50 PDT. As to the method:
as §1, §6

Series [12] has as its system S. aureus. Put plainly: Dark toxicity of photosensitizers on bacteria, CFU count. The series is classed as cell-based, Staphylococcus aureus. The following applies: absence of light, 6 h. As to the method: as §3, §5
Series [13] can be described thus: UV-Visible and fluorescence spectrometry. The format is physicochemical. As to the method:
(§7) All of the new prepared phenothiazine-pyridine compounds are deep blue solid, the basic physiochemical properties are measured by UV-Visible and fluorescence spectrometry. […] The maximum absorption is about 650 nm in ethanol, and they are varied based on the compound structure. The fluorescence emission is about 680 nm when excited at 610 nm. All of these compounds have relatively high quantum yield, they are promising diagnostic and imaging agents. The lipophilicity is determined by the partition coefficient (log P), which can be obtained by measuring the UV-Vis absorption of the compound in phosphate buffer saline (PBS) before and after the partition equilibrium between n-octanol and PBS solution, and then calculated following the equation of: Log p=Log [(Abefore/Aafter)−1]. Wherein Abefore and Aafter are the absorption values in PBS solution before and after partition.

Series [14] is described as follows: Partition coefficient (log P) between n-octanol and PBS by UV-Vis absorption. The series is classed as physicochemical. As to the method: as §7
The subject of series [15] is normal fibroblast WI38 cells. Put plainly: Dark toxicity, MTT assay. The format is cell-based. Conditions: Homo sapiens, WI-38; WI38 cells, 24 h under dark, MTT; read-out: IC50 dark toxicity. As to the method: as §1, §2
The IC50 values (50% inhibitory concentration) of the prepared phenothiazine-pyridine compounds 8, 14, 15, 16, 17, 18, 19, 20, 21, 22, 23, and 24 to normal fibroblast cell line WI38 were measured by MTT assay.

Another series relates to MDA-MB-231 cells. In words: Light dosage dependent photocytotoxicity, 635 Laser. Conditions: MDA-MB-231, 635 Laser. The format is cell-based. As to the method: as §1, §6
[…] After incubation for a further 24 h, 3-(4,5-Dimethylthiazol-2-yl)-2,5-diphenyltetrazolium bromide (MTT) were added and the cells were incubated for another 4 h. The medium were sucked by syringe, and dimethyl sulfoxide (DMSO) was added to fully dissolve the crystals, the optical density (OD) values were measured with a microplate reader, and the data were analyzed by GraphPad Prism 6.

The subject of series [16] is HT29 cell line. Conditions: 664 laser and 3 J/cm^2 light dose (2008); read-out: IC50 PDT, Stanley B. Brown reported value; cited from earlier work.
In another series the test system is HT29 cells. Put plainly: Intracellular ROS generation, DCFH-DA probe, flow cytometry. The series is classed as cell-based. The following applies: HT29, 0.5 uM, light irradiation; order 14≈23>8>18>15>24>>16>20>17≈19≈22>21>>MB. From the text: In order to further mimic the biological environment, we measured the intracellular reactive oxygen species (ROS) generation efficiency of these phenothiazine-pyridine compounds by flow cytometry. We employed HT29 cell line as cell model, and 2,7-dichlorofluorescin diacetate (DCFH-DA) as the intracellular ROS indicator, to determine the fluorescence intensity of 2,7-dichlorofluorescin (DCF), which was oxidized from DCFH-DA by ROS. The experiments were repeated for three times using DCFH-DA as control. For comparison, methylene blue was used as positive control. The data were analyzed by GraphPad Prism 6, the drug concentrations are all at 0.5 uM. […] In addition, the intracellular ROS generation efficiency is different from that measured in organic solvent, which may be attributed to the different cellular uptake amount for various compounds and the generation of some other ROS species other than ^1O2 in cells ([…] mechanism).
Background: A flow cytometer gives signals particle by particle.

For `CCCCN(CCCC)c1ccc2nc3ccc(=[N+](CCCC)CCCC)cc-3sc2c1.[Br-]` [PPA904], the “log 10-reduction” value in the series with S. aureus [1] is 4 log 10-reduction; in the series with E. coli [2] it was 3 log 10-reduction. Also, the dark toxicity result in the series with bacteria is “obvious dark toxicity”.

In the case of `CCCNc1cc2[s+]c3cc(N(CC)CC)ccc3nc2c2ccc(C)nc12.[Cl-]` [Compound 14, 9-(diethylamino)-3-methyl-5-(propylamino)pyrido[3,2-a]phenothiazin-7-ium chloride], the IC50 was 1900 nM in the series with MCF7 cell line [3]; 2100 nM with HT29 cell line [4]; 3100 nM in the series on A549 cell line [5]; 370 nM with MCF7 cell line [9]; 39 nM in the series on HT29 cell line [10]; 340 nM in the series on A549 cell line [11]. Further, in series [15], the IC50 is more than 10000 nM. For the same compound, the “photocytotoxicity vs light dosage” value is given as “light dosage dependent” in the series on S. aureus [6] (0.5 uM drug), “light dosage dependent” in the series on E. coli [7] (6 uM drug) and “light dosage dependent photocytotoxicity” with MDA-MB-231 cells. The eradication result was “about 99.9999%” in the series with S. aureus [6] (0.5 uM, 30 J/cm^2) and “about 99.999%” with E. coli [7] (6 uM, 50 J/cm^2). Moreover, the “log 10-reduction” value is recorded as approximately 6 log 10-reduction with S. aureus [6] (0.5 uM, 30 J/cm^2) and approximately 5 log 10-reduction in the series with E. coli [7] (6 uM, 50 J/cm^2). Further, the dark toxicity entry with E. coli [8] and in the series with S. aureus [12] was “essentially non-toxic” throughout. Moreover, in series [13] (UV-Vis absorption maximum in EtOH), the “λmax(nm)in EtOH” value came to 666 nm. In addition, the “Log ε” value in series [13] (UV-Vis in EtOH) was 5.01. In [13] (fluorescence emission, excited at 610 nm), the “λEm (nm)” value is 684 nm. This compound also had a log partition coefficient (logP) in series [14] of 1.34.

Regarding `CN(C)c1ccc2nc3ccc(=[N+](C)C)cc-3sc2c1` [MB, methylene blue], the IC50 in the series on HT29 cell line [4] was more than 10000 nM; in the series on HT29 cell line [16], 88500 nM; in the series with HT29 cell line [10] it was 9200 nM. Besides, the “log 10-reduction” value in the series on E. coli [2] is 0.5 log 10-reduction. Further, the “intracellular ROS generation efficiency” value with HT29 cells is on record as “almost no ROS generation”. The dark toxicity entry in the series with bacteria is recorded as “obvious dark toxicity”.
